Test results taken from ChEMBL document CHEMBL4411339, “Design, synthesis and antimycobacterial activity of less lipophilic Q203 derivatives containing alkaline fused ring moieties” (Bioorg Med Chem, 2019).
≈ marks a conversion by molar mass, not a printed value.

Assays:
[1] = system: Mycobacterium tuberculosis; experiment: Antimycobacterial activity against Mycobacterium tuberculosis H37Rv ATCC 27294 after 7 days by microplate alamar blue assay; type: functional; conditions: H37Rv ATCC 27294, 168 h
[2] = Acute toxicity in specific pathogen free ICR mouse at 500 mg/kg, po administered as single dose measured up to 7 days; type: organism-based; conditions: in vivo, 168 h
[3] = AUC (0 to infinity) in specific pathogen free ICR mouse at 25 mg/kg, po administered as single dose by HPLC analysis; type: ADME, organism-based; design: dose 25 mg/kg, time infinity, route oral; conditions: in vivo
[4] = Tmax in specific pathogen free ICR mouse at 25 mg/kg, po administered as single dose by HPLC analysis; type: ADME, organism-based; conditions: in vivo
[5] = Elimination half life in specific pathogen free ICR mouse at 25 mg/kg, po administered as single dose by HPLC analysis; type: ADME, organism-based; conditions: in vivo, read-out: beta t1/2 (converted)
[6] = Cmax in specific pathogen free ICR mouse at 25 mg/kg, po administered as single dose by HPLC analysis; type: ADME, organism-based; design: dose 25 mg/kg, route oral; conditions: in vivo
[7] = Cytotoxicity against African green monkey Vero cells assessed as reduction in cell viability after 72 hrs by MTT assay; type: cell-based; conditions: chlorocebus sabaeus
hERG (KCNH2) = hERG (KCNH2) (Homo sapiens, UniProt Q12809); experiment: Inhibition of human ERG at 10 uM relative to control
[8] = Aqueous solubility of the compound in pH 2 0.01M HCl incubated under stirred condition for 12 hrs by UV-HPLC analysis; type: physicochemical

hERG (KCNH2), sequence (Q12809 whole entry): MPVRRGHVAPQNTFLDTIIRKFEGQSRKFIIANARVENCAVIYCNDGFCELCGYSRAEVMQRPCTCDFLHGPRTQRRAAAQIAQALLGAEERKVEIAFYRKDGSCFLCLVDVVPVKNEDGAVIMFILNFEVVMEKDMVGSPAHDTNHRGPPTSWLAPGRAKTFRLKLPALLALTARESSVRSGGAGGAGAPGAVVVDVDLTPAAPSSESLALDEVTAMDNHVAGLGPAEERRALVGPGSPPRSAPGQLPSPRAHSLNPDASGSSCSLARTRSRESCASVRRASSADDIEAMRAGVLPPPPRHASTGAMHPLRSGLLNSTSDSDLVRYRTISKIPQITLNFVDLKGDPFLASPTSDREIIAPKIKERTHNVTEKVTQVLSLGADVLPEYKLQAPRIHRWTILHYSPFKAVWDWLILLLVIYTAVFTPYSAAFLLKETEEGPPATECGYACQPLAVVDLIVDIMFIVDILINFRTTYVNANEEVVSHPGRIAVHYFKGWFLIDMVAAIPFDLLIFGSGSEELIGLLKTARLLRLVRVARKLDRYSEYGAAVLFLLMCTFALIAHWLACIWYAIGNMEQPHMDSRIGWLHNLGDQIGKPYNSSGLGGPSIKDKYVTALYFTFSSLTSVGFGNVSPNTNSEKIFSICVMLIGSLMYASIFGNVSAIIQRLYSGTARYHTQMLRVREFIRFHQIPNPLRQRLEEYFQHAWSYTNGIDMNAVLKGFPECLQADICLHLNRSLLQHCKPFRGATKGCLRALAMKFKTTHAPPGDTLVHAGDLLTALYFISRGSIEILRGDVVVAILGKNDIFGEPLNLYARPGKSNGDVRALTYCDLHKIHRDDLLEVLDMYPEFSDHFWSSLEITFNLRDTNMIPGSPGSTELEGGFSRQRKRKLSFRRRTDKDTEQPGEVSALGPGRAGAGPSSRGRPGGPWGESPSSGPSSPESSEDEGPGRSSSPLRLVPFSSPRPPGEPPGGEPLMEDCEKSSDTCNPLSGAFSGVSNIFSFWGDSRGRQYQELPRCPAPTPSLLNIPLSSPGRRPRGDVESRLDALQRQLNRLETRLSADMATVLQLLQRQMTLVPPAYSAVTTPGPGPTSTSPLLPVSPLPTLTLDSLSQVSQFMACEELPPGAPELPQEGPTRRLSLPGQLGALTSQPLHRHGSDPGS

CCc1nc2cc(Cl)ccn2c1C(=O)NCc1ccc2c(c1)CCN(Cc1ccc(F)cc1)C2
MIC [1]: 0.19 µM (≈ 0.0906 µg/mL)

CCc1nc2ccc(Cl)cn2c1C(=O)NCc1ccc2c(c1)CCN(Cc1ccc(C(F)(F)F)cn1)C2
Activity [2]: Non-Toxic | AUC(0-inf) [3]: 25600 ng·h/mL | Tmax [4]: 35 min | half-life [5]: 192 min | MIC [1]: 0.053 µM (≈ 0.028 µg/mL) | Cmax [6]: 8060 ng/mL | CC50 at 72 h [7]: > 64 µg/mL | inhibition at 10 µM (hERG (KCNH2)): 25%

CCc1nc2ccc(Cl)cn2c1C(=O)NCc1ccc2c(c1)CCN(Cc1cc(F)cc(F)c1)C2
MIC [1]: < 0.035 µM | CC50 at 72 h [7]: 14 µg/mL (≈ 28.3 µM)

CCc1nc2ccc(Cl)cn2c1C(=O)NCc1ccc2c(c1)CCN(Cc1ccc(F)cc1)C2
MIC [1]: < 0.035 µM | CC50 at 72 h [7]: > 64 µg/mL | inhibition at 10 µM (hERG (KCNH2)): 60%

CCc1nc2ccc(Cl)cn2c1C(=O)NCc1ccc2c(c1)CCN(CCc1ccc(C(F)(F)F)cn1)C2
Activity [2]: Non-Toxic | AUC(0-inf) [3]: 54900 ng·h/mL | Tmax [4]: 15 min | half-life [5]: 323 min | MIC [1]: < 0.035 µM | Cmax [6]: 22100 ng/mL | CC50 at 72 h [7]: 48 µg/mL (≈ 88.6 µM) | inhibition at 10 µM (hERG (KCNH2)): 13% | solubility at 12 h [8]: 2100 µg/mL (≈ 3870 µM)

CCc1nc2cc(Cl)ccn2c1C(=O)NCc1ccc2c(c1)CCN(Cc1ccc(C(F)(F)F)cc1)C2
MIC [1]: 0.91 µM (≈ 0.48 µg/mL)

CCc1nc2cc(Cl)ccn2c1C(=O)NCc1ccc2c(c1)CCN(Cc1ccc(C(C)(C)C)cc1)C2
MIC [1]: 0.12 µM (≈ 0.0618 µg/mL) | CC50 at 72 h [7]: 14 µg/mL (≈ 27.2 µM)

CCc1nc2ccc(Cl)cn2c1C(=O)NCc1ccc2c(c1)CCN(Cc1ccc(C(F)(F)F)cc1)C2
Activity [2]: Non-Toxic | AUC(0-inf) [3]: 7800 ng·h/mL | Tmax [4]: 15 min | half-life [5]: 299 min | MIC [1]: 0.13 µM (≈ 0.0685 µg/mL) | Cmax [6]: 3000 ng/mL | CC50 at 72 h [7]: > 64 µg/mL | inhibition at 10 µM (hERG (KCNH2)): 50%

CCc1nc2cc(Cl)ccn2c1C(=O)NCc1ccc2c(c1)CCN(Cc1cc(F)cc(F)c1)C2
Activity [2]: Non-Toxic | AUC(0-inf) [3]: 24100 ng·h/mL | Tmax [4]: 40 min | half-life [5]: 544 min | MIC [1]: < 0.035 µM | Cmax [6]: 5380 ng/mL | CC50 at 72 h [7]: 48 µg/mL (≈ 97 µM) | inhibition at 10 µM (hERG (KCNH2)): 48%

CCc1nc2cc(Cl)ccn2c1C(=O)NCc1ccc2c(c1)CCN(Cc1ccc(OC)cc1)C2
MIC [1]: < 0.035 µM | CC50 at 72 h [7]: 32 µg/mL (≈ 65.4 µM) | inhibition at 10 µM (hERG (KCNH2)): 64%

CCc1nc2ccc(Cl)cn2c1C(=O)NCc1ccc2c(c1)CCN(Cc1ccc(Br)cc1)C2
MIC [1]: < 0.035 µM | CC50 at 72 h [7]: 30 µg/mL (≈ 55.8 µM)

CCc1nc2ccc(Cl)cn2c1C(=O)NCc1ccc2c(c1)CN(C(C)c1ccc(OC(F)(F)F)cc1)C2 (stereo not given)
Activity [2]: Non-Toxic | AUC(0-inf) [3]: 7610 ng·h/mL | Tmax [4]: 20 min | half-life [5]: 545 min | MIC [1]: < 0.035 µM | Cmax [6]: 3990 ng/mL | CC50 at 72 h [7]: > 64 µg/mL | inhibition at 10 µM (hERG (KCNH2)): 50%

CCc1nc2ccc(Cl)cn2c1C(=O)NCc1ccc2c(c1)CCN(Cc1ccc(C(C)(C)C)cc1)C2
Activity [2]: Non-Toxic | AUC(0-inf) [3]: 4210 ng·h/mL | Tmax [4]: 30 min | half-life [5]: 561 min | MIC [1]: < 0.035 µM | Cmax [6]: 1080 ng/mL | CC50 at 72 h [7]: 37 µg/mL (≈ 71.8 µM) | inhibition at 10 µM (hERG (KCNH2)): 31%

CCc1nc2ccc(Cl)cn2c1C(=O)NCc1ccc2c(c1)CCN(Cc1ccc([N+](=O)[O-])o1)C2
MIC [1]: 0.25 µM (≈ 0.123 µg/mL)

CCc1nc2ccc(Cl)cn2c1C(=O)NCc1ccc2c(c1)CCN(Cc1ccc(C)cc1)C2
MIC [1]: < 0.035 µM | CC50 at 72 h [7]: 51 µg/mL (≈ 108 µM) | inhibition at 10 µM (hERG (KCNH2)): 54%

CCc1nc2cc(Cl)ccn2c1C(=O)NCc1ccc2c(c1)CCN(Cc1ccc(C)cc1)C2
MIC [1]: 0.27 µM (≈ 0.128 µg/mL)

CCc1nc2ccc(Cl)cn2c1C(=O)NCc1ccc2c(c1)CCN(Cc1ccc(C(F)(F)F)nc1)C2
MIC [1]: 0.097 µM (≈ 0.0512 µg/mL) | CC50 at 72 h [7]: 7 µg/mL (≈ 13.3 µM)

CCc1nc2cc(Cl)ccn2c1C(=O)NCc1ccc2c(c1)CCN(CCc1ccc(C(F)(F)F)nc1)C2
MIC [1]: 0.19 µM (≈ 0.103 µg/mL)

CCc1nc2ccc(Cl)cn2c1C(=O)NCc1ccc2c(c1)CN(Cc1ccc(OC(F)(F)F)cc1)C2
Activity [2]: Non-Toxic | AUC(0-inf) [3]: 3600 ng·h/mL | Tmax [4]: 25 min | half-life [5]: 308 min | MIC [1]: 0.051 µM (≈ 0.027 µg/mL) | Cmax [6]: 1310 ng/mL | CC50 at 72 h [7]: > 64 µg/mL | inhibition at 10 µM (hERG (KCNH2)): 50%

CCc1nc2ccc(Cl)cn2c1C(=O)NCc1ccc2c(c1)CCN(Cc1ccc(OC)cc1)C2
MIC [1]: < 0.035 µM | CC50 at 72 h [7]: 2 µg/mL (≈ 4.09 µM)

CCc1nc2cc(Cl)ccn2c1C(=O)NCc1ccc2c(c1)CCN(CCc1ccc(C(F)(F)F)cn1)C2
MIC [1]: < 0.035 µM | CC50 at 72 h [7]: 25 µg/mL (≈ 46.1 µM)

CCc1nc2ccc(Cl)cn2c1C(=O)NCc1ccc2c(c1)CCN(CCc1ccc(C(F)(F)F)nc1)C2
Activity [2]: Non-Toxic | AUC(0-inf) [3]: 1480 ng·h/mL | Tmax [4]: 15 min | half-life [5]: 107 min | MIC [1]: 0.047 µM (≈ 0.0255 µg/mL) | Cmax [6]: 1630 ng/mL | CC50 at 72 h [7]: > 64 µg/mL | inhibition at 10 µM (hERG (KCNH2)): 44%

CCc1nc2cc(Cl)ccn2c1C(=O)NCc1ccc2c(c1)CCN(Cc1ccc(Br)cc1)C2
MIC [1]: 0.31 µM (≈ 0.167 µg/mL)

CCc1nc2cc(Cl)ccn2c1C(=O)NCc1ccc2c(c1)CCN(Cc1ccc([N+](=O)[O-])o1)C2
MIC [1]: < 0.035 µM | CC50 at 72 h [7]: > 64 µg/mL | inhibition at 10 µM (hERG (KCNH2)): 71%

NNC(=O)c1ccncc1 [ISONIAZID]
MIC [1]: 0.27 µM (≈ 0.037 µg/mL)

O=c1nc(N2CCN(CC3CCCCC3)CC2)sc2c([N+](=O)[O-])cc(C(F)(F)F)cc12 [MACOZINONE]
AUC(0-inf) [3]: 1600 ng·h/mL | MIC [1]: < 0.035 µM | CC50 at 72 h [7]: 31 µg/mL (≈ 67.9 µM) | inhibition at 10 µM (hERG (KCNH2)): 41% | solubility at 12 h [8]: 1130 µg/mL (≈ 2480 µM)

CO[C@H]1/C=C/O[C@@]2(C)Oc3c(C)c(O)c4c(O)c(c(/C=N/N5CCN(C)CC5)c(O)c4c3C2=O)NC(=O)/C(C)=C\C=C\[C@H](C)[C@H](O)[C@@H](C)[C@@H](O)[C@@H](C)[C@H](OC(C)=O)[C@@H]1C [RIFAMPIN]
MIC [1]: 0.12 µM (≈ 0.0988 µg/mL)

CCc1nc2ccc(Cl)cn2c1C(=O)NCc1ccc(N2CCC(c3ccc(OC(F)(F)F)cc3)CC2)cc1 [TELACEBEC]
AUC(0-inf) [3]: 46600 ng·h/mL | Tmax [4]: 160 min | half-life [5]: 1120 min | MIC [1]: < 0.035 µM | Cmax [6]: 3780 ng/mL | CC50 at 72 h [7]: > 64 µg/mL | inhibition at 10 µM (hERG (KCNH2)): 50% | solubility at 12 h [8]: 79 µg/mL (≈ 142 µM)
